Among the data in the supplement of paper PMC10307832 are relative viability values, retold here.

What all share (assay): relative viability (nuclei count vs DMSO), 5 days (fraction); higher = more cells survive
Compound in the assay “Irinotecan + Vorinostat”: CCc1c2c(nc3ccc(OC(=O)N4CCC(N5CCCCC5)CC4)cc13)-c1cc3c(c(=O)n1C2)COC(=O)[C@]3(O)CC [Irinotecan] + O=C(CCCCCCC(=O)Nc1ccccc1)NO [Vorinostat] (partner 1 µM)
The essentials: (§1)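 Lung cancer cell lines were pin-tool dosed in 1536-well plates on the day after seeding, with either a lone drug or a fixed anchor-drug dose plus five library-drug doses (not always all listed) in √10 steps. Nuclei were counted on 4× images after 5 days. Relative viability is the ratio of treated-well to vehicle-well nuclei counts, with each value a median of duplicate plates.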

Compound in the assay “RU-SKI 43 + Lapatinib”: CC[C@@H](C)CNCC(=O)N1CCC2=C([C@@H]1COC3=CC=CC(=C3)C)C=CS2 [RU-SKI 43] + CS(=O)(=O)CCNCc1ccc(-c2ccc3ncnc(Nc4ccc(OCc5cccc(F)c5)c(Cl)c4)c3c2)o1 [Lapatinib] (partner 2 µM)
A digest of the protocol: as §1

Compound in the assay “Irinotecan + Crizotinib”: CCc1c2c(nc3ccc(OC(=O)N4CCC(N5CCCCC5)CC4)cc13)-c1cc3c(c(=O)n1C2)COC(=O)[C@]3(O)CC [Irinotecan] + C[C@@H](Oc1cc(-c2cnn(C3CCNCC3)c2)cnc1N)c1c(Cl)ccc(F)c1Cl [Crizotinib] (partner 1 µM)
The essentials:
as §1

Compound in the assay “MK-8033 + Lapatinib”: Cn1cc(-c2cnc3ccc4ccc(CS(=O)(=O)NCc5ccccn5)cc4c(=O)c3c2)cn1 [MK-8033] + CS(=O)(=O)CCNCc1ccc(-c2ccc3ncnc(Nc4ccc(OCc5cccc(F)c5)c(Cl)c4)c3c2)o1 [Lapatinib] (partner 2 µM)
A digest of the protocol: as §1

As for UMC-11, the relative viability was found to be 0.262 with Irinotecan + Vorinostat (first compound 0.6325 µM); 0.343 with Irinotecan + Vorinostat (first compound 2 µM); 0.235 with Irinotecan + Vorinostat (first compound 6.325 µM); 0.206 with Irinotecan + Vorinostat (first compound 20 µM); 1.05 with RU-SKI 43 + Lapatinib (first compound 0.1 µM); 1.01 in the assay with RU-SKI 43 + Lapatinib (first compound 0.3162 µM). Also, the relative viability with RU-SKI 43 + Lapatinib (first compound 1 µM) came to 1.48; with RU-SKI 43 + Lapatinib (first compound 3.162 µM), 0.918; with RU-SKI 43 + Lapatinib (first compound 10 µM), 0.764; in the assay with Irinotecan + Crizotinib (first compound 0.6325 µM), 0.296; in the assay with Irinotecan + Crizotinib (first compound 2 µM), 0.374; in the assay with Irinotecan + Crizotinib (first compound 6.325 µM), 0.326. The relative viability with Irinotecan + Crizotinib (first compound 20 µM) was 0.157; with MK-8033 + Lapatinib (first compound 0.02 µM), 1.02; in the assay with MK-8033 + Lapatinib (first compound 0.06325 µM) it was 0.522; with MK-8033 + Lapatinib (first compound 0.2 µM), 0.866; with MK-8033 + Lapatinib (first compound 0.6325 µM) it was 1.04; with MK-8033 + Lapatinib (first compound 2 µM) it was 0.944.
